Test results: patent US5985603A, “P2x receptor DNA and protein sequence” (Glaxo Group Limited, priority 1994, dated 1999)

Key:
Assay type in all cases: cell-based
[1] = molecular target: T1, rat vas deferens P2X receptor (Rattus norvegicus, UniProt P47824); experiment: ATP-evoked currents, rat vas deferens P2X receptor clone in oocytes; conditions: ATP (>1 μM), second application 10 mins after the first
T1 construct: cRNA in Xenopus oocytes; stably transfected CHO cells
T1 sequence (P47824 1-399): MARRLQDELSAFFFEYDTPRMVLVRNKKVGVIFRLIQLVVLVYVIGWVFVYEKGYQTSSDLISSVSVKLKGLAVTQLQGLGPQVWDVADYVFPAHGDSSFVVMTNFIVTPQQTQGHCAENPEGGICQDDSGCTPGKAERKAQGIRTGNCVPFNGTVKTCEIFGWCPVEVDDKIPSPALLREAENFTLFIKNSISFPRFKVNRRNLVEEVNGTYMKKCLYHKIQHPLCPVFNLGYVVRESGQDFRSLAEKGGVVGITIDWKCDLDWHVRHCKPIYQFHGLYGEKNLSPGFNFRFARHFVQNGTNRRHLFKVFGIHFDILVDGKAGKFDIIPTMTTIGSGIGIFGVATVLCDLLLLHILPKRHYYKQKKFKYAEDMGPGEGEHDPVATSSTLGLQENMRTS
Description: 50 nl (200 ng) of RNA was injected into defolliculated Xenopus oocytes. After incubation for 2-6 days at 18° C., the oocytes were assayed for ATP-evoked currents by a two-electrode voltage clamp ([…]™); one electrode is to hold the voltage constant (at -100 mV), and the other is to measure the currents. […] Microelectrodes (0.5-2 M.OMEGA.) were filled with 3M KCl.

[2] = molecular target: T2, rat superior cervical ganglion P2X receptor (clone 3) (Rattus norvegicus, UniProt P51577); experiment: functional properties of cloned P2X receptors (electrical recordings): clone 3
T2 construct: The insert appeared to be a full length cDNA; expressed in transfected cells; host or cells: HEK293 cells transfected with pcDNA3 construct p464 (also oocytes injected with in vitro transcribed RNA)
T2 sequence (P51577 1-388): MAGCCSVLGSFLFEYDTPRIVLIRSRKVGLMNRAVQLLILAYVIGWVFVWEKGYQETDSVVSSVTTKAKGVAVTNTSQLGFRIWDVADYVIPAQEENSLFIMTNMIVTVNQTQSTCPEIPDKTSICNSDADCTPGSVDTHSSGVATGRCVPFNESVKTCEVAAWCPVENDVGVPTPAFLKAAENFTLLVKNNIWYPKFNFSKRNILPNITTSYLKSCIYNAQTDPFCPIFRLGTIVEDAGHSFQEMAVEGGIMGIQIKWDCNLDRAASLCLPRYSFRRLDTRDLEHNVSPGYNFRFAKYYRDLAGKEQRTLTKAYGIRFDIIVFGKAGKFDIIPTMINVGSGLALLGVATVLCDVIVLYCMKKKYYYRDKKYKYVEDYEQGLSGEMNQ

PC12 P2X receptor = molecular target: T3, PC12 P2X receptor (Rattus norvegicus, UniProt P49653); experiment: functional properties of cloned P2X receptors (electrical recordings): PC12
T3 construct: host or cells: HEK293 cells (oocytes are also named for the functional characterisation of clone 3)
T3 sequence (P49653 1-472): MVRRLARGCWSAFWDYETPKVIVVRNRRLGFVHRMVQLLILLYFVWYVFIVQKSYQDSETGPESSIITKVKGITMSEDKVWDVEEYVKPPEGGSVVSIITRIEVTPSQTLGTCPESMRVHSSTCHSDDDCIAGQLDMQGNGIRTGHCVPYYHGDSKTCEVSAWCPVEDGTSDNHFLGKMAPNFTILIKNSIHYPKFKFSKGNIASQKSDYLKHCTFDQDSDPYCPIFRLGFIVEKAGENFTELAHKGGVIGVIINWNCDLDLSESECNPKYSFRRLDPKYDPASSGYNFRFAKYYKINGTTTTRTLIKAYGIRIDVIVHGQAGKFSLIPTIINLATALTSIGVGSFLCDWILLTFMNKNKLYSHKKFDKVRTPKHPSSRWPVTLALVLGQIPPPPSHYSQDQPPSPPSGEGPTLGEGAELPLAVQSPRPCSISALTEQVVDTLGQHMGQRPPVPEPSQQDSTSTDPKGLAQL

## Nc1ncnc2c1ncn2[C@@H]1O[C@H](COP(=O)([O-])OP(=O)([O-])OP(=O)([O-])[O-])[C@@H](O)[C@H]1O.[Mg+2].[Mg+2] [ATP, adenosine 5'-triphosphate magnesium salt]
[1]
  inward current evoked by second application, of the initial peak amplitude: ~ 50%
[2]
  EC50: 11 µM
[2]; applications of several seconds
  decline of currents (desensitisation) during application: little or no decline during applications of several seconds
PC12 P2X receptor
  EC50: 8 µM
